The values below come from BindingDB's records for doi:10.1021/jm0613323 (Burnham Institute For Medical Research, 2007).

The assay has as its target Receptor-type tyrosine-protein phosphatase C, CD45/PTPRC (Homo sapiens) (UniProt P08575). Nature of the assay: Inhibition of CD45 PTP by fluorescence spectrometry.

Receptor-type tyrosine-protein phosphatase C, CD45/PTPRC (Homo sapiens), sequence (P08575 whole entry, looked up): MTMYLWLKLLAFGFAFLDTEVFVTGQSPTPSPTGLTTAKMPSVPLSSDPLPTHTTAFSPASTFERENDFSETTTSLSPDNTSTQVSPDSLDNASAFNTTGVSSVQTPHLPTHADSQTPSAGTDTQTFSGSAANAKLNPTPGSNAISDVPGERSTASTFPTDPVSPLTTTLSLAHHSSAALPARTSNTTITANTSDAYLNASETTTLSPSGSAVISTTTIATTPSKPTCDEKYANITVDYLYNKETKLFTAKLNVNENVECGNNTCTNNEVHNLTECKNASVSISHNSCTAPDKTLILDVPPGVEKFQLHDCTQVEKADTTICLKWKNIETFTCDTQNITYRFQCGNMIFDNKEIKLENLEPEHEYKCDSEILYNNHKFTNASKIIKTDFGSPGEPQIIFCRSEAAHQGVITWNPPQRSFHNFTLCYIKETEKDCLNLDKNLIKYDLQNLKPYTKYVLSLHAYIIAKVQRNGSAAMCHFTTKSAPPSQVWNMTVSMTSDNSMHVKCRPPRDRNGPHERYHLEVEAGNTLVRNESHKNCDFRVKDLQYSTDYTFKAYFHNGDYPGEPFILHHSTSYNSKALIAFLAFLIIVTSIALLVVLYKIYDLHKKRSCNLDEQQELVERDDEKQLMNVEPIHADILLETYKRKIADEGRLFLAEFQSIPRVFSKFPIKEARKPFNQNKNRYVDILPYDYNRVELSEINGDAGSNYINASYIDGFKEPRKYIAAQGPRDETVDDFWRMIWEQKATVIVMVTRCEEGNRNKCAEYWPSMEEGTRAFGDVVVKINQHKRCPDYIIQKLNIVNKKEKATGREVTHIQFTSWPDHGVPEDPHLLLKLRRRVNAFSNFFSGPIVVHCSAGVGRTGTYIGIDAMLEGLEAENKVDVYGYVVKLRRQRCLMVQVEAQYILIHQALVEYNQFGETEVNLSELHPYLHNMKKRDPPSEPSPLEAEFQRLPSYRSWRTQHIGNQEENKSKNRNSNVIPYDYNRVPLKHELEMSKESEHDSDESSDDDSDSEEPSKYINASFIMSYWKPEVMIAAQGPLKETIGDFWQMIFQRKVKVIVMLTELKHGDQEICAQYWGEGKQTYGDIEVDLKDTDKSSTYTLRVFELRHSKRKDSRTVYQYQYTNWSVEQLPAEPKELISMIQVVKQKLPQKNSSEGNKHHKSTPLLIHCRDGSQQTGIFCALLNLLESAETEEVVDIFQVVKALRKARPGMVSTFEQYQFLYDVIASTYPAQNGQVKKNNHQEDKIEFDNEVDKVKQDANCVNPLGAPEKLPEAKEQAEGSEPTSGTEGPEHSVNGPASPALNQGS

`Oc1ccc(-c2ccc(-c3nnn[nH]3)cc2Cl)cc1C12CC3CC(CC(C3)C1)C2` [5-[3'-(1-adamantyl)-2-chloro-4'-hydroxy-4-biphenyl]-1H-tetrazole]: the IC50 was found to be 1200 nM. This lies in the single-digit micromolar range.
